Reference: patent US10696693B2, “Fused imidazole derivatives as TGF-beta inhibitors” (Rigel Pharmaceuticals, Inc., priority 2014, dated 2020)
Read-outs that look alike come from different tables or passages of the source.

Tests used:
GDF8 = test: AlphaScreen SureFire p-SMAD3 (Ser423/425) assay, GDF8-stimulated cells; assay type: cell-based
In short: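 Lysate (5 μL) went into 384-well shallow plates with 5 μL of Reaction Buffer, Activation Buffer and AlphaScreen Acceptor bead mix. Plates were sealed, kept dark and shaken for 2 hours at room temperature. Donor beads in dilution buffer (2 μL) were added for another 1½ hours, and p-SMAD3 signal was read on a Synergy-4 or Enspire reader.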

TGF-β = test: AlphaScreen SureFire p-SMAD3 (Ser423/425) assay, TGF-β-stimulated cells; assay type: cell-based
In short: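 The p-SMAD-3 (Ser423/425) SureFire assay measured phosphorylation of endogenous SMAD-3 in cell lysates. Cells were plated overnight in collagen-coated plates, exposed to three-fold serially diluted compounds for about 10 minutes, then stimulated with TGFβ. Lysates (5 μL) received acceptor bead mix for 2 hours, then donor beads for 1½ hours before AlphaScreen reading.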

[1] = Mus musculus, MPC-11, p-SMAD3 (Ser423/425) AlphaScreen in cell lysate, MPC11, GDF8 stimulation, read-out: GDF8: inhibition of GDF8 signaling, GDF pSMAD (MPC11)
[2] = Mus musculus, p-SMAD3 (Ser423/425) AlphaScreen in cell lysate, MPC-11, TGF-β stimulation, read-out: TGF-β: inhibition of TGF-β signaling, TGF-β pSMAD (MPC-11)
[3] = Mus musculus, MPC-11, read-out: GDF8: inhibition of GDF8 signaling, GDF pSMAD (MPC11), p-SMAD3 (Ser423/425) AlphaScreen in cell lysate, GDF8 stimulation
[4] = Mus musculus, MPC-11, read-out: TGF-β: inhibition of TGF-β signaling, TGF-β pSMAD (MPC-11), p-SMAD3 (Ser423/425) AlphaScreen in cell lysate, TGF-β stimulation

Structure (SMILES) | IC50 (GDF8; [1]) | IC50 (TGF-β; [2]) | also measured
COCCOc1cnc2ccc(-c3c(-c4cc(F)c(F)cc4F)nc4n3CCN4)cc2n1 [Compound 115, 2-(2-methoxyethoxy)-7-(6-(2,4,5-trifluorophenyl)-2,3-dihydro-1H-imidazo[1,2-a]imidazol-5-yl)quinoxaline] | 100 to 1000 nM | 100 to 1000 nM | –
CC(=O)N1CCn2c1nc(-c1cc(F)cc(F)c1F)c2-c1ccc2ncnn2c1 [Compound 109, 1-(5-([1,2,4]triazolo[1,5-a]pyridin-6-yl)-6-(2,3,5-trifluorophenyl)-2,3-dihydro-1H-imidazo[1,2-a]imidazol-1-yl)ethan-1-one] | < 50 nM | < 50 nM | –
Fc1ccc(-c2nc3occn3c2-c2ccc3ncsc3c2)c(F)c1 [Compound 156, 5-(benzo[d]thiazol-6-yl)-6-(2,4-difluorophenyl)imidazo[2,1-b]oxazole] | < 50 nM | 50 to 100 nM | –
Fc1cc(F)c(F)c(-c2nc3n(c2-c2ccc4ncsc4c2)CCC3)c1 [Compound 235, 6-(2-(2,3,5-trifluorophenyl)-6,7-dihydro-5H-pyrrolo[1,2-a]imidazol-3-yl)benzo[d]thiazole] | – | – | IC50 (GDF8; [3]): 100 to 1000 nM; IC50 (TGF-β; [4]): 100 to 1000 nM
Cc1cc(-c2nc3n(c2-c2ccc4ncsc4c2)CCC3)c(C)cc1F [Compound 309, 6-(2-(4-fluoro-2,5-dimethylphenyl)-6,7-dihydro-5H-pyrrolo[1,2-a]imidazol-3-yl)benzo[d]thiazole] | – | – | IC50 (GDF8; [3]): 100 to 1000 nM; IC50 (TGF-β; [4]): 100 to 1000 nM
Fc1ccc(-c2nc3occn3c2-c2ccc3ncccc3c2)c(F)c1 [Compound 158, 5-(quinolin-6-yl)-6-(2,4-difluorophenyl)imidazo[2,1-b]oxazole] | < 50 nM | 50 to 100 nM | –
Fc1cc(F)c(F)c(-c2nc3n(c2-c2ccc4ncnn4c2)CCCN3)c1 [Compound 166, 6-(2-(2,3,5-trifluorophenyl)-5,6,7,8-tetrahydroimidazo[1,2-a]pyrimidin-3-yl)-[1,2,4]triazolo[1,5-a]pyridine] | 50 to 100 nM | 50 to 100 nM | –
Fc1cccc(-c2nc3n(c2-c2ccc4[nH]ncc4c2)CCC3)c1 [Compound 193, 5-(2-(3-fluorophenyl)-6,7-dihydro-5H-pyrrolo[1,2-a]imidazol-3-yl)-1H-indazole] | – | – | IC50 (GDF8; [3]): 100 to 1000 nM; IC50 (TGF-β; [4]): > 1000 nM
Cc1cc(-c2nc3n(c2-c2ccc4ncnn4c2)CCC3)c(C)cc1F [Compound 64, 6-(2-(4-fluoro-2,5-dimethylphenyl)-6,7-dihydro-5H-pyrrolo[1,2-a]imidazol-3-yl)-[1,2,4]triazolo[1,5-a]pyridine] | 100 to 1000 nM | > 1000 nM | –
Cc1cc(-c2nc3n(c2-c2ccc4ncsc4c2)CCC3)cc(C)c1F [Compound 277, 6-(2-(4-fluoro-3,5-dimethylphenyl)-6,7-dihydro-5H-pyrrolo[1,2-a]imidazol-3-yl)benzo[d]thiazole] | > 1000 nM | > 1000 nM | –
Fc1cc(F)c(-c2nc3occn3c2-c2ccc3ncccc3c2)cc1F [Compound 150, 5-(quinolin-6-yl)-6-(2,4,5-trifluorophenyl)imidazo[2,1-b]oxazole] | < 50 nM | 50 to 100 nM | –
Cc1cccc(-c2nc3n(c2-c2ccc4cn[nH]c4c2)CCC3)c1 [Compound 169, 6-(2-(m-tolyl)-6,7-dihydro-5H-pyrrolo[1,2-a]imidazol-3-yl)-1H-indazole] | < 50 nM | 50 to 100 nM | –
Fc1cc(F)c(-c2nc3n(c2-c2ccc4ncccc4c2)CCN3)cc1F [Compound 107, 6-(6-(2,4,5-trifluorophenyl)-2,3-dihydro-1H-imidazo[1,2-a]imidazol-5-yl)quinoline] | < 50 nM | < 50 nM | –
O=C(O)C1Cn2c(nc(-c3cc(F)cc(F)c3F)c2-c2ccc3nccnc3c2)N1 (stereo not shown) [Compound 125, 5-(quinoxalin-6-yl)-6-(2,3,5-trifluorophenyl)-2,3-dihydro-1H-imidazo[1,2-a]imidazole-2-carboxylic acid] | 50 to 100 nM | < 50 nM | –
Fc1cc(Cl)c(-c2nc3n(c2-c2ccc4ncsc4c2)CCC3)cc1F [Compound 289, 6-(2-(2-chloro-4,5-difluorophenyl)-6,7-dihydro-5H-pyrrolo[1,2-a]imidazol-3-yl)benzo[d]thiazole] | < 50 nM | 100 to 1000 nM | –
Fc1ccc(-c2nc3n(c2-c2ccc4nccnc4c2)CCC3)c(F)c1 [Compound 204, 6-(2-(2,4-difluorophenyl)-6,7-dihydro-5H-pyrrolo[1,2-a]imidazol-3-yl)quinoxaline] | 100 to 1000 nM | 100 to 1000 nM | –

Structure (SMILES) | IC50 (GDF8; [1]) | IC50 (TGF-β; [2]) | also measured
COCCOc1cnc2ccc(-c3c(-c4cc(F)c(F)cc4F)nc4n3CCC4)cc2n1 [Compound 353, 2-(2-methoxyethoxy)-7-(2-(2,4,5-trifluorophenyl)-6,7-dihydro-5H-pyrrolo[1,2-a]imidazol-3-yl)quinoxaline] | 100 to 1000 nM | 100 to 1000 nM | –
Fc1cc(F)c(F)c(-c2nc3n(c2-c2ccc4ncc(-n5ccnc5)nc4c2)CCC3)c1 [Compound 359, 2-(1H-imidazol-1-yl)-7-(2-(2,3,5-trifluorophenyl)-6,7-dihydro-5H-pyrrolo[1,2-a]imidazol-3-yl)quinoxaline] | – | – | IC50 (GDF8; [3]): 50 to 100 nM; IC50 (TGF-β; [4]): 100 to 1000 nM
CN(C)CCOc1cnc2ccc(-c3c(-c4cc(Cl)ccc4F)nc4n3CCC4)cc2n1 [Compound 363, 2-((7-(2-(5-chloro-2-fluorophenyl)-6,7-dihydro-5H-pyrrolo[1,2-a]imidazol-3-yl)quinoxalin-2-yl)oxy)-N,N-dimethylethan-1-amine] | < 50 nM | < 50 nM | –
Fc1cc(F)c(-c2nc3occn3c2-c2ccc3cn[nH]c3c2)cc1F [Compound 147, 6-(2,4,5-trifluorophenyl)-5-(1H-indazol-6-yl)imidazo[2,1-b]oxazole] | < 50 nM | 50 to 100 nM | –
Fc1ccc(-c2nc3n(c2-c2ccc4[nH]ncc4c2)CCC3)c(F)c1F [Compound 225, 5-(2-(2,3,4-trifluorophenyl)-6,7-dihydro-5H-pyrrolo[1,2-a]imidazol-3-yl)-1H-indazole] | – | – | IC50 (GDF8; [3]): 100 to 1000 nM; IC50 (TGF-β; [4]): 100 to 1000 nM
Fc1ccc(-c2nc3occn3c2-c2ccc3cn[nH]c3c2)cc1 [Compound 128, 6-(4-fluorophenyl)-5-(1H-indazol-6-yl)imidazo[1,2-b]oxaozle] | 100 to 1000 nM | 100 to 1000 nM | –
c1ccc(-c2nc3n(c2-c2ccc4nccnc4c2)CCC3)nc1 [Compound 368, 6-(2-(pyridin-2-yl)-6,7-dihydro-5H-pyrrolo[1,2-a]imidazol-3-yl)quinoxaline] | 50 to 100 nM | 50 to 100 nM | –
Cc1cc(F)ccc1-c1nc2n(c1-c1ccc3ncsc3c1)CCC2 [Compound 293, 6-(2-(4-fluoro-2-methylphenyl)-6,7-dihydro-5H-pyrrolo[1,2-a]imidazol-3-yl)benzo[d]thiazole] | 100 to 1000 nM | 100 to 1000 nM | –
Cc1cc(-c2nc3n(c2-c2ccc4nccnc4c2)CCC3)c(Cl)cc1F [Compound 321, 6-(2-(2-chloro-4-fluoro-5-methylphenyl)-6,7-dihydro-5H-pyrrolo[1,2-a]imidazol-3-yl)quinoxaline] | – | – | IC50 (GDF8; read-out: GDF8: inhibition of GDF8 signaling, GDF pSMAD (MPC11), p-SMAD3 (Ser423/425) AlphaScreen in cell lysate, GDF8 stimulation): > 1000 nM; IC50 (TGF-β; read-out: TGF-β: inhibition of TGF-β signaling, TGF-β pSMAD (MPC-11), p-SMAD3 (Ser423/425) AlphaScreen in cell lysate, TGF-β stimulation): > 1000 nM
Fc1ccc(Cl)cc1-c1nc2n(c1-c1cc3cnccc3s1)CCC2 [Compound 102, 2-(2-(5-chloro-2-fluorophenyl)-6,7-dihydro-5H-pyrrolo[1,2-a]imidazol-3-yl)thieno[3,2-c]pyridine] | < 50 nM | 50 to 100 nM | –
Cc1c(F)ccc(-c2nc3n(c2-c2ccc4nccn4c2)CCC3)c1F [Compound 46, 6-(2-(2,4-difluoro-3-methylphenyl)-6,7-dihydro-5H-pyrrolo[1,2-a]imidazol-3-yl)imidazo[1,2-a]pyridine] | 100 to 1000 nM | 100 to 1000 nM | –
Fc1ccc(-c2nc3occn3c2-c2ccc3ncccc3c2)c(F)c1F [Compound 162, 5-(quinolin-6-yl)-6-(2,3,4-trifluorophenyl)imidazo[2,1-b]oxazole] | 50 to 100 nM | 100 to 1000 nM | –
Cc1cc(-c2nc3n(c2-c2ccc4nccnc4c2)CCC3)c(C)cc1F [Compound 310, 6-(2-(4-fluoro-2,5-dimethylphenyl)-6,7-dihydro-5H-pyrrolo[1,2-a]imidazol-3-yl)quinoxaline] | – | – | IC50 (GDF8; [3]): 100 to 1000 nM; IC50 (TGF-β; [4]): > 1000 nM
Fc1ccc(Cl)cc1-c1nc2n(c1-c1ccc3ncnn3c1)CCC2 [Compound 82, 6-(2-(5-chloro-2-fluoro)-6,7-dihydro-5H-pyrrolo[1,2-a]imidazol-3-yl)-[1,2,4]triazolo[1,5-a]pyridine] | < 50 nM | < 50 nM | –
Cc1cc(-c2nc3n(c2-c2ccc4nccn4c2)CCC3)ccc1F [Compound 3, 6-(2-(4-fluoro-3-methylphenyl)-6,7-dihydro-5H-pyrrolo[1,2-a]imidazol-3-yl)imidazo[1,2-a]pyridine] | 50 to 100 nM | 100 to 1000 nM | –
O=S(=O)(Nc1cccc(-c2nc3n(c2-c2ccc4[nH]ncc4c2)CCC3)c1)c1ccccc1F [Compound 320, N-(3-(3-(1H-indazol-5-yl)-6,7-dihydro-5H-pyrrolo[1,2-a]imidazol-2-yl)phenyl)-2-fluorobenzenesulfonamide] | – | – | IC50 (GDF8; [3]): > 1000 nM; IC50 (TGF-β; [4]): > 1000 nM
